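Following 48 hours of exposure in 96-well plates, responses at five concentrations were used to interpolate endpoints linearly. The concentration for 50% growth inhibition is given as GI50.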 Active and inactive are the calls of the source. No stated cut-off is given here; in the data, active = GI50 up to about 1.1 µM and inactive = higher.
Legend:
Experiment in all cases: NCI anticancer screen, dose series, 48 h
KM12 = test system: KM12
LXFL 529 = test system: LXFL 529
MOLT-4 = test system: MOLT-4
DMS-114 = test system: DMS-114
M19-MEL = test system: M19-MEL
CCRF-CEM = test system: CCRF-CEM
SNB-75 = test system: SNB-75
SR = test system: SR
RXF 393 = test system: RXF 393
NCI-H460 = test system: NCI-H460
COLO 205 = test system: COLO 205
CAKI-1 = test system: CAKI-1
SF-295 = test system: SF-295
M14 = test system: M14
NCI-H23 = test system: NCI-H23
SF-268 = test system: SF-268
OVCAR-3 = test system: OVCAR-3
RXF 631 = test system: RXF 631
DLD-1 = test system: DLD-1
A549 = test system: A549
HT-29 = test system: HT-29
OVCAR-4 = test system: OVCAR-4
SW-620 = test system: SW-620
UO-31 = test system: UO-31
NCI-H226 = test system: NCI-H226
SNB-19 = test system: SNB-19
IGROV-1 = test system: IGROV-1
SK-MEL-5 = test system: SK-MEL-5
DMS-273 = test system: DMS-273
EKVX = test system: EKVX
HCT-15 = test system: HCT-15
TK-10 = test system: TK-10
SF-539 = test system: SF-539
RPMI-8226 = test system: RPMI-8226
SK-OV-3 = test system: SK-OV-3
HOP-92 = test system: HOP-92
HCC 2998 = test system: HCC 2998
SNB-78 = test system: SNB-78
ACHN = test system: ACHN
KM-20L2 = test system: KM-20L2
HOP-18 = test system: HOP-18
U-251 = test system: U-251
SN12C = test system: SN12C
XF498 = test system: XF498
HL-60 = test system: HL-60
HOP-62 = test system: HOP-62
UACC-62 = test system: UACC-62
HCT-116 = test system: HCT-116
NCI-H522 = test system: NCI-H522
A498 = test system: A498
LOX IMVI = test system: LOX IMVI
786-0 = test system: 786-0
K562 = test system: K562
OVCAR-8 = test system: OVCAR-8
Malme-3M = test system: Malme-3M
OVCAR-5 = test system: OVCAR-5
UACC-257 = test system: UACC-257
SK-MEL-28 = test system: SK-MEL-28

With `CC(=O)OCC1OC(NC(=S)N/N=C2\CC(c3ccccc3)Oc3ccccc32)C(OC(C)=O)C(OC(C)=O)C1OC(C)=O` (stereo unspecified) the GI50 (KM12) was > 100 µM (inactive), the GI50 (LXFL 529) was > 100 µM (inactive) and the GI50 (MOLT-4) was > 100 µM (inactive). For the same compound, the GI50 (DMS-114) was > 100 µM (inactive), the GI50 (M19-MEL) was > 100 µM (inactive) and the GI50 (CCRF-CEM) was > 100 µM (inactive). The GI50 (SNB-75) was > 100 µM (inactive), the GI50 (SR) was > 100 µM (inactive) and the GI50 (RXF 393) was > 100 µM (inactive). For the same compound, the GI50 (NCI-H460) was > 100 µM (inactive), the GI50 (COLO 205) was > 100 µM (inactive) and the GI50 (CAKI-1) was > 100 µM (inactive). For the same compound, the GI50 (SF-295) was > 100 µM (inactive), the GI50 (M14) was > 100 µM (inactive) and the GI50 (NCI-H23) was > 100 µM (inactive). The GI50 (SF-268) was > 100 µM (inactive), the GI50 (OVCAR-3) was > 100 µM (inactive) and the GI50 (RXF 631) was 32 µM (inactive). The GI50 (DLD-1) was > 100 µM (inactive), the GI50 (A549) was > 100 µM (inactive) and the GI50 (HT-29) was > 100 µM (inactive). The GI50 (OVCAR-4) was > 100 µM (inactive), the GI50 (SW-620) was > 100 µM (inactive) and the GI50 (UO-31) was > 100 µM (inactive). For the same compound, the GI50 (NCI-H226) was > 100 µM (inactive), the GI50 (SNB-19) was > 100 µM (inactive) and the GI50 (IGROV-1) was > 100 µM (inactive). The GI50 (SK-MEL-5) was > 100 µM (inactive), the GI50 (DMS-273) was 56.8 µM (inactive) and the GI50 (EKVX) was > 100 µM (inactive). The GI50 (HCT-15) was greater than 100 µM, the GI50 (TK-10) was > 100 µM (inactive) and the GI50 (SF-539) was > 100 µM (inactive). For the same compound, the GI50 (RPMI-8226) was > 100 µM (inactive), the GI50 (SK-OV-3) was > 100 µM (inactive) and the GI50 (HOP-92) was > 100 µM (inactive). The GI50 (HCC 2998) was > 100 µM (inactive), the GI50 (SNB-78) was > 100 µM (inactive) and the GI50 (ACHN) was > 100 µM (inactive). The GI50 (KM-20L2) was > 100 µM (inactive), the GI50 (HOP-18) was > 100 µM (inactive) and the GI50 (U-251) was > 100 µM (inactive). For the same compound, the GI50 (SN12C) was > 100 µM (inactive), the GI50 (XF498) was > 100 µM (inactive) and the GI50 (HL-60) was > 100 µM (inactive). For the same compound, the GI50 (HOP-62) was > 100 µM (inactive), the GI50 (UACC-62) was > 100 µM (inactive) and the GI50 (HCT-116) was > 100 µM (inactive). The GI50 (NCI-H522) was > 100 µM (inactive), the GI50 (A498) was > 100 µM (inactive) and the GI50 (LOX IMVI) was > 100 µM (inactive). The GI50 (786-0) was > 100 µM (inactive), the GI50 (K562) was > 100 µM (inactive) and the GI50 (OVCAR-8) was > 100 µM (inactive). For the same compound, the GI50 (Malme-3M) was > 100 µM (inactive), the GI50 (OVCAR-5) was > 100 µM (inactive) and the GI50 (UACC-257) was > 100 µM (inactive).
With `CS/C(=N\c1ccc([N+](=O)[O-])cc1C#N)NC(=O)c1ccccc1` the GI50 (KM12) was > 100 µM (inactive), the GI50 (LXFL 529) was > 100 µM (inactive) and the GI50 (MOLT-4) was 54.2 µM (inactive). The GI50 (DMS-114) was > 100 µM (inactive), the GI50 (M19-MEL) was > 100 µM (inactive) and the GI50 (CCRF-CEM) was > 100 µM (inactive). The GI50 (SNB-75) was 28.4 µM (inactive), the GI50 (SR) was > 100 µM (inactive) and the GI50 (RXF 393) was 40.4 µM (inactive). The GI50 (NCI-H460) was > 100 µM (inactive), the GI50 (COLO 205) was > 100 µM (inactive) and the GI50 (CAKI-1) was 94.2 µM (inactive). The GI50 (SF-295) was > 100 µM (inactive), the GI50 (M14) was > 100 µM (inactive) and the GI50 (NCI-H23) was > 100 µM (inactive). For the same compound, the GI50 (SF-268) was > 100 µM (inactive), the GI50 (OVCAR-3) was > 100 µM (inactive) and the GI50 (RXF 631) was > 100 µM (inactive). For the same compound, the GI50 (DLD-1) was > 100 µM (inactive), the GI50 (A549) was > 100 µM (inactive) and the GI50 (HT-29) was > 100 µM (inactive). The GI50 (OVCAR-4) was > 100 µM (inactive), the GI50 (SW-620) was > 100 µM (inactive) and the GI50 (NCI-H226) was 33.9 µM (inactive). The GI50 (SNB-19) was > 100 µM (inactive), the GI50 (SK-MEL-28) was > 100 µM (inactive) and the GI50 (IGROV-1) was > 100 µM (inactive). For the same compound, the GI50 (SK-MEL-5) was > 100 µM (inactive), the GI50 (EKVX) was 94.8 µM (inactive) and the GI50 (HCT-15) was greater than 100 µM. The GI50 (TK-10) was > 100 µM (inactive), the GI50 (SF-539) was > 100 µM (inactive) and the GI50 (RPMI-8226) was > 100 µM (inactive). For the same compound, the GI50 (HOP-92) was 46 µM (inactive), the GI50 (HCC 2998) was > 100 µM (inactive) and the GI50 (SNB-78) was > 100 µM (inactive). The GI50 (ACHN) was > 100 µM (inactive), the GI50 (KM-20L2) was > 100 µM (inactive) and the GI50 (HOP-18) was 75.7 µM (inactive). The GI50 (U-251) was > 100 µM (inactive), the GI50 (SN12C) was > 100 µM (inactive) and the GI50 (XF498) was > 100 µM (inactive). The GI50 (HL-60) was > 100 µM (inactive), the GI50 (HOP-62) was > 100 µM (inactive) and the GI50 (UACC-62) was > 100 µM (inactive). For the same compound, the GI50 (HCT-116) was > 100 µM (inactive), the GI50 (A498) was > 100 µM (inactive) and the GI50 (LOX IMVI) was 95.3 µM (inactive). The GI50 (786-0) was > 100 µM (inactive), the GI50 (K562) was > 100 µM (inactive) and the GI50 (OVCAR-8) was > 100 µM (inactive). The GI50 (Malme-3M) was > 100 µM (inactive), the GI50 (OVCAR-5) was > 100 µM (inactive) and the GI50 (UACC-257) was > 100 µM (inactive).
